Holding throughout (test): in-line probing
For assay [1], the system named is 92 allB (RNA, riboswitch) GGCAGAAUAAGCUCUUGUAUAAGCUCAUUAAUCCGGUUUGAGCGUUUCGACCAGGCGACCGUAAAUUGCCCCAGGCUACAAGAGGUGCAGGAAA
The settings on record: 100 mM K+, 20 mM Mg2+, 100 mM Tris-HCl pH 8.3, room temperature, ~40 h.

For assay [2], the system named is 92 PRT (RNA, riboswitch) GGAAUCAAACAUCUCUUGUAUAAGCUCGUUAAUUUGGAAUGAGCGUAUCUACAGGCAACCGUAAAUUGCCCCAGGCUACAAGAGGCCAGACAAG
The settings on record: 100 mM K+, 20 mM Mg2+.

Assay [3] concerns 94 nuc (RNA, riboswitch) GGAAAAAAAAUUAUUUUUCGUAUAUCCUUAAUGAUAUGGUUUAAGGGCAAUACAUAGAAACCACAAAUUUCUUACUGCGAAAAAUAUGCUUCUUUA
The settings on record: 100 mM K+, 20 mM Mg2+; 100 mM Tris-HCl pH 8.3, room temperature, ~40 h.

For the compound `Nc1nc2[nH]cnc2c(=O)[nH]1`, the binding entry in assay [1] (100 µM compound) is “no”. In assay [2], the KD is listed as under 8.3 nM.

Take `Nc1nc2c(ncn2[C@H]2C[C@H](O)[C@@H](CO)O2)c(=O)[nH]1`: the KD in assay [3] is reported as ~ 1.5 μM.

Consider `O=c1[nH]c(=O)c2[nH]cnc2[nH]1`, for which the KD in assay [1] is recorded as ~ 36.5 µM. Moreover, in assay [2] (100 mM Tris-HCl pH 8.3, room temperature, ~40 h, 100 µM compound), the binding result is on record as “no”.

Values taken from paper PMC9295807 (2022).
